The NIST ThermoML archive (doi:10.1021/je400056z)

Test: xn = mol fraction of the nth substance listed
Settings: Liquid, Vibrating tube method

CCCCCCCCCCCCC [tridecane] + O=C=O
Settings	mass density [kg/m3]
353.12 K, 20000 kPa, x2 = 0.0955	732.3
353.12 K, 20000 kPa, x2 = 0.2526	735.2
353.12 K, 21000 kPa, x2 = 0.0955	733.1
353.12 K, 21000 kPa, x2 = 0.2526	736
353.12 K, 22000 kPa, x2 = 0.0955	733.9
353.12 K, 22000 kPa, x2 = 0.2526	736.8
353.12 K, 23000 kPa, x2 = 0.0955	734.6
353.12 K, 23000 kPa, x2 = 0.2526	737.6
353.12 K, 24000 kPa, x2 = 0.0955	735.4
353.12 K, 24000 kPa, x2 = 0.2526	738.5
353.12 K, 25000 kPa, x2 = 0.0955	736.1
353.12 K, 25000 kPa, x2 = 0.2526	739.2
353.13 K, 17000 kPa, x2 = 0.8978	677.4
353.13 K, 18000 kPa, x2 = 0.8978	689.5
353.13 K, 20000 kPa, x2 = 0.8978	712.3
353.13 K, 21000 kPa, x2 = 0.8978	721.9
353.13 K, 22000 kPa, x2 = 0.8978	730.6
353.13 K, 23000 kPa, x2 = 0.8978	738.3
353.13 K, 24000 kPa, x2 = 0.8978	745.5
353.13 K, 25000 kPa, x2 = 0.8978	752.2
353.15 K, 8000 kPa, x2 = 0.5259	729.7
353.15 K, 9000 kPa, x2 = 0.5259	731.2
353.15 K, 10000 kPa, x2 = 0.5259	732.7
353.15 K, 11000 kPa, x2 = 0.5259	734.2
353.15 K, 12000 kPa, x2 = 0.5259	735.6
353.15 K, 13000 kPa, x2 = 0.5259	737
353.15 K, 14000 kPa, x2 = 0.5259	738.3
353.15 K, 15000 kPa, x2 = 0.5259	739.7
353.15 K, 16000 kPa, x2 = 0.5259	741
353.15 K, 17000 kPa, x2 = 0.5259	742.3
353.15 K, 18000 kPa, x2 = 0.5259	743.6
353.15 K, 19000 kPa, x2 = 0.5259	744.9
353.15 K, 20000 kPa, x2 = 0.5259	746
353.15 K, 21000 kPa, x2 = 0.5259	747.3
353.15 K, 22000 kPa, x2 = 0.5259	748.4
353.15 K, 23000 kPa, x2 = 0.5259	749.6
353.15 K, 24000 kPa, x2 = 0.5259	750.6
353.15 K, 25000 kPa, x2 = 0.5259	751.8
353.35 K, 16000 kPa, x2 = 0.7549	739.7
353.35 K, 17000 kPa, x2 = 0.7549	742.7
353.35 K, 18000 kPa, x2 = 0.7549	745.7
353.35 K, 19000 kPa, x2 = 0.7549	748.7
353.35 K, 20000 kPa, x2 = 0.7549	751.8
353.35 K, 21000 kPa, x2 = 0.7549	754.9
353.35 K, 22000 kPa, x2 = 0.7549	757.9
353.35 K, 23000 kPa, x2 = 0.7549	760.8
353.35 K, 24000 kPa, x2 = 0.7549	763.8
353.35 K, 25000 kPa, x2 = 0.7549	766.7
363.07 K, 19000 kPa, x2 = 0.8978	671.9
363.07 K, 20000 kPa, x2 = 0.8978	681
363.07 K, 21000 kPa, x2 = 0.8978	691.1
363.07 K, 22000 kPa, x2 = 0.8978	700.8
363.07 K, 23000 kPa, x2 = 0.8978	709.5
363.07 K, 24000 kPa, x2 = 0.8978	717.3
363.07 K, 25000 kPa, x2 = 0.8978	724.8
363.11 K, 9000 kPa, x2 = 0.0955	715.7
363.11 K, 9000 kPa, x2 = 0.2526	717.4
363.11 K, 10000 kPa, x2 = 0.0955	716.7
363.11 K, 10000 kPa, x2 = 0.2526	718.4
363.11 K, 10000 kPa, x2 = 0.5259	723
363.11 K, 11000 kPa, x2 = 0.0955	717.7
363.11 K, 11000 kPa, x2 = 0.2526	719.5
363.11 K, 11000 kPa, x2 = 0.5259	724.6
363.11 K, 12000 kPa, x2 = 0.0955	718.7
363.11 K, 12000 kPa, x2 = 0.2526	720.5
363.11 K, 12000 kPa, x2 = 0.5259	726.2
363.11 K, 13000 kPa, x2 = 0.0955	719.6
363.11 K, 13000 kPa, x2 = 0.2526	721.5
363.11 K, 13000 kPa, x2 = 0.5259	727.6
363.11 K, 14000 kPa, x2 = 0.0955	720.5
363.11 K, 14000 kPa, x2 = 0.2526	722.6
363.11 K, 14000 kPa, x2 = 0.5259	729.2
363.11 K, 15000 kPa, x2 = 0.0955	721.5
363.11 K, 15000 kPa, x2 = 0.2526	723.6
363.11 K, 15000 kPa, x2 = 0.5259	730.6
363.11 K, 16000 kPa, x2 = 0.0955	722.4
363.11 K, 16000 kPa, x2 = 0.2526	724.6
363.11 K, 16000 kPa, x2 = 0.5259	732
363.11 K, 17000 kPa, x2 = 0.0955	723.3
363.11 K, 17000 kPa, x2 = 0.2526	725.5
363.11 K, 17000 kPa, x2 = 0.5259	733.4
363.11 K, 18000 kPa, x2 = 0.0955	724.1
363.11 K, 18000 kPa, x2 = 0.2526	726.4
363.11 K, 18000 kPa, x2 = 0.5259	734.7
363.11 K, 19000 kPa, x2 = 0.0955	725
363.11 K, 19000 kPa, x2 = 0.2526	727.4
363.11 K, 19000 kPa, x2 = 0.5259	736
363.11 K, 20000 kPa, x2 = 0.0955	725.8
363.11 K, 20000 kPa, x2 = 0.2526	728.3
363.11 K, 20000 kPa, x2 = 0.5259	737.3
363.11 K, 21000 kPa, x2 = 0.0955	726.6
363.11 K, 21000 kPa, x2 = 0.2526	729.2
363.11 K, 21000 kPa, x2 = 0.5259	738.6
363.11 K, 22000 kPa, x2 = 0.0955	727.5
363.11 K, 22000 kPa, x2 = 0.2526	730.1
363.11 K, 22000 kPa, x2 = 0.5259	739.9
363.11 K, 23000 kPa, x2 = 0.0955	728.3
363.11 K, 23000 kPa, x2 = 0.2526	731
363.11 K, 23000 kPa, x2 = 0.5259	741.1
363.11 K, 24000 kPa, x2 = 0.0955	729.1
363.11 K, 24000 kPa, x2 = 0.2526	731.8
363.11 K, 24000 kPa, x2 = 0.5259	742.3
363.11 K, 25000 kPa, x2 = 0.0955	729.9
363.11 K, 25000 kPa, x2 = 0.2526	732.7
363.11 K, 25000 kPa, x2 = 0.5259	743.4
363.34 K, 16000 kPa, x2 = 0.7549	720.1
363.34 K, 17000 kPa, x2 = 0.7549	724.7
363.34 K, 18000 kPa, x2 = 0.7549	728.3
363.34 K, 19000 kPa, x2 = 0.7549	730.8
363.34 K, 20000 kPa, x2 = 0.7549	734.2
363.34 K, 21000 kPa, x2 = 0.7549	737.3
363.34 K, 22000 kPa, x2 = 0.7549	740.5
363.34 K, 23000 kPa, x2 = 0.7549	743.8
363.34 K, 24000 kPa, x2 = 0.7549	746.9
363.34 K, 25000 kPa, x2 = 0.7549	750.1
